Publication PMC8197425, “ATP regulates RNA‐driven cold inducible RNA binding protein phase separation” (Protein Science : A Publication of the Protein Society, 2021)

target: T1, CIRBP (Homo sapiens, UniProt Q14011); experiment: 1H-15N HSQC NMR chemical shift perturbation; format: binding; conditions: 17 μM 15N-CIRBP; 10 mM ligand; 50 mM sodium phosphate, 150 mM NaCl, pH 6.5, 298 K; RRM and RG/RGG region
T1 construct: full length (1-172), wild type; His6-protein A tag removed by TEV protease; E. coli BL21-DE3 Star; 15N-labelled
T1 sequence (Q14011 1-172): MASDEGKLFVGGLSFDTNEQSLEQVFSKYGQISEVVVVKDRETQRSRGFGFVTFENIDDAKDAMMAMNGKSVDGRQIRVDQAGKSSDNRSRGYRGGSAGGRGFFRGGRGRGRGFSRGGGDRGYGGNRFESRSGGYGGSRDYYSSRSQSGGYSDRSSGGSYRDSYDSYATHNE

Row | Compound | 1H-15N HSQC NMR chemical shift perturbation
1 | Nc1ncnc2c1ncn2[C@@H]1O[C@H](COP(=O)(O)OP(=O)(O)O)[C@@H](O)[C@H]1O [ADP] | ADP and NAD^+ showed binding to CIRBP (Figure 2a,c)
2 | Nc1ncnc2c1ncn2[C@@H]1O[C@H](COP(=O)(O)O)[C@@H](O)[C@H]1O [AMP] | the other tested nucleotides (ATP, AMP)
3 | NC(=O)c1ccc[n+]([C@@H]2O[C@H](COP(=O)(O)OP(=O)(O)OC[C@H]3O[C@@H](n4cnc5c(N)ncnc54)[C@H](O)[C@@H]3O)[C@@H](O)[C@H]2O)c1 [NAD+] | ADP and NAD^+ showed binding to CIRBP (Figure 2a,c)
4 | NC(=O)C1=CN([C@@H]2O[C@H](COP(=O)(O)OP(=O)(O)OC[C@H]3O[C@@H](n4cnc5c(N)ncnc54)[C@H](O)[C@@H]3O)[C@@H](O)[C@H]2O)C=CC1 [NADH] | dinucleotides (NADH, NADP^+ and NADPH) showed significant binding to CIRBP
5 | NC(=O)C1=CN([C@@H]2O[C@H](COP(=O)(O)OP(=O)(O)OC[C@H]3O[C@@H](n4cnc5c(N)ncnc54)[C@H](OP(=O)(O)O)[C@@H]3O)[C@@H](O)[C@H]2O)C=CC1 [NADPH] | dinucleotides (NADH, NADP^+ and NADPH) showed significant binding to CIRBP

target: T1, CIRBP; experiment: 1H-15N HSQC NMR titration; format: binding; conditions: not given
Text: 1H-15N HSQC NMR titration on CIRBP | ATP binding to CIRBP is in the fast exchange regime with an associated KD

Row | Kd [µM] | Compound
6 | 2900 ± 1400 | Nc1ncnc2c1ncn2[C@@H]1O[C@H](COP(=O)(O)OP(=O)(O)OP(=O)(O)O)[C@@H](O)[C@H]1O [ATP]
